According to patent US6479531B1, “Gastrin and cholecystokinin receptor ligands” (James Black Foundation Limited, priority 1998, dated 2002):
Counter-ions that a name gives are not always drawn.

Legend:
gastrin receptor = biological target: T1, gastrin receptor (Rattus norvegicus, UniProt P30553); test: gastrin antagonist activity in immature rat stomach assay (pentagastrin dose-response, acid secretion); details: isolated immature rat stomach, cumulative pentagastrin dose-response curves, read-out: Gastrin pKb (converted)
T1 construct: The stomach was excised and flushed with ca. 1 ml of unbuffered physiological saline solution; from tissue; host or cells: isolated whole stomach of immature rats (ca. 21 days old)
T1 sequence (P30553 1-452): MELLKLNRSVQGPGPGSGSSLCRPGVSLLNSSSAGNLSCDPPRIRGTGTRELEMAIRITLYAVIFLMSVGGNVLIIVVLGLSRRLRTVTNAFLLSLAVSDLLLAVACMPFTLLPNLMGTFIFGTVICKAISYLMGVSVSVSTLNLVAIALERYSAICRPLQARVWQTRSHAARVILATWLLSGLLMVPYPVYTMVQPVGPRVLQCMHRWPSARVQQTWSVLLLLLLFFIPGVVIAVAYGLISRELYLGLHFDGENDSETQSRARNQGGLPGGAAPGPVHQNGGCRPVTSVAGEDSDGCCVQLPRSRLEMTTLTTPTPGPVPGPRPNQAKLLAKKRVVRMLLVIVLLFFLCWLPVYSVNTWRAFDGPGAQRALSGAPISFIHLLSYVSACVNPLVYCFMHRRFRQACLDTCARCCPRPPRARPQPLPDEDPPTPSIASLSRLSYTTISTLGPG
How it was run: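 Isolated, lumen-perfused stomach from immature rats (33-50 g, ca. 21 days) in a 37° organ bath with 3×10^−8 M 5-methylfurmethide, gassed 95% O2/5% CO2. Compound added serosally after 120 min stabilisation; cumulative pentagastrin dose-response curves begun 60 min later, acid secretion followed by perfusate pH.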

CCKB receptor = biological target: T2, CCKB receptor (Mus musculus, UniProt P56481); test: CCKB receptor radioligand binding assay in mouse cortical membranes; details: [125I]-CCK8(S) 200 pM, 150 min at 21±3°, read-out: CCKB pKi (converted)
T2 construct: The whole brains from male mice (CD1 22-25 g; Charles River) were removed; from tissue; host or cells: cerebral cortex membranes of male CD1 mice
T2 sequence (P56481 1-453): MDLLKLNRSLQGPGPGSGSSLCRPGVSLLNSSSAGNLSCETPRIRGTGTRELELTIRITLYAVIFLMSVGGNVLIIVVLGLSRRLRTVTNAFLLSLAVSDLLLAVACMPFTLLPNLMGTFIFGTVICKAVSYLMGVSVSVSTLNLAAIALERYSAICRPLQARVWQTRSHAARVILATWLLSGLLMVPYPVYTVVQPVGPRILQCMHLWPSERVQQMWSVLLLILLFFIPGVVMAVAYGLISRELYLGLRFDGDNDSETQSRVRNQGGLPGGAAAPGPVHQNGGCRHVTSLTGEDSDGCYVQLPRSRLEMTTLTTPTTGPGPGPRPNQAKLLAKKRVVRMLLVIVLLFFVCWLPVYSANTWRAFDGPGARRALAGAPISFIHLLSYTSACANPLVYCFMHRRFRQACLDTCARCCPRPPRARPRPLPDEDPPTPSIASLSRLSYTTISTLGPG
How it was run: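 Bound radioactivity was gamma-counted after rapid GF/B filtration and cold 50 mM Tris-HCl (pH 7.4) washes. The tissue was cerebral cortex from male CD1 mice, prepared as twice-centrifuged membranes in pH 7.2 HEPES/NaCl/KCl/MgCl2/EDTA buffer with bacitracin at 20 mg/ml original wet weight.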

| Compound | Kb (gastrin receptor) [nM] | Ki (CCKB receptor) [nM] |
| --- | --- | --- |
| Cc1ccc(NC(=O)c2nc(-c3ccc(F)cc3F)[nH]c2CCC23CC4CC(CC(C4)C2)C3)cc1C(=O)O [Example 152, 5-{[5-(2-Adamantan-1-yl-ethyl)-2-(2,4-difluoro-phenyl)-1H-imidazole-4-carbonyl]-amino}-2-methyl-benzoic Acid] | 11.5 | 10.5 |
| O=C(O)c1cccc(NC(=O)c2[nH]c(-c3ccccc3)nc2CCC23CC4CC(CC(C4)C2)C3)c1 [Example 47, 3-{[5-(2-Adamantan-1-yl-ethyl)-2-phenyl-1H-imidazole-4-carbonyl]-amino}-benzoic Acid] | 234 | 251 |
| CCCC(CCC)c1nc(C(=O)Nc2ccc(C)c(C(=O)O)c2)c(CCC23CC4CC(CC(C4)C2)C3)[nH]1 [Example 126, 5-{[5-(2-Adamantan-1-yl-ethyl)-2-(1-propyl-butyl)-1H-imidazole-4-carbonyl]-amino}-2-methyl-benzoic Acid] | 15.8 | 21.9 |
| O=C(O)c1cccc(NC(=O)c2nc(-c3ccccc3Br)[nH]c2CCC23CC4CC(CC(C4)C2)C3)c1 [Example 59, 3-{[5-(2-Adamantan-1-yl-ethyl)-2-(2-bromo-phenyl)-1H-imidazole-4-carbonyl]-amino}-benzoic Acid] | 57.5 | 251 |
| CC12CC3CC(C)(C1)CC(CCc1[nH]c(C4CCCCC4)nc1C(=O)Nc1cccc(C(=O)O)c1)(C3)C2 [Example 174, 3-({2-Cyclohexyl-5-[2-(3,5-dimethyl-adamantan-1-yl)-ethyl]-1H-imidazole-4-carbonyl}-amino)-benzoic Acid] | 204 | 251 |
| O=C(O)c1cccc(NC(=O)c2nc(-c3ccccc3C(F)(F)F)[nH]c2CCC23CC4CC(CC(C4)C2)C3)c1 [Example 56, 3-{[5-(2-Adamantan-1-yl-ethyl)-2-(2-trifluoromethyl-phenyl)-1H-imidazole-4-carbonyl]-amino}-benzoic Acid] | 18.2 | 240 |
| O=C(O)c1cccc(NC(=O)c2nc(-c3cnc[nH]3)[nH]c2CCC23CC4CC(CC(C4)C2)C3)c1 [Example 110, 3-{[5-(2-Adamantan-1-yl-ethyl)-1H-3′H-[2,4′]biimidazolyl-4-carbonyl]-amino}-benzoic Acid] | 1050 | 339 |
| O=C(O)c1cccc(NC(=O)c2nc(-c3ccc(F)cc3F)[nH]c2CCC23CC4CC(CC(C4)C2)C3)c1 [Example 60, 3-{[5-(2-Adamantan-1-yl-ethyl)-2-(2,4-difluoro-phenyl)-1H-imidazole-4-carbonyl]-amino}-benzoic Acid] | 7.76 | 141 |
| O=C(O)c1cccc(NC(=O)c2sc(C3CCCCC3)nc2CCC23CC4CC(CC(C4)C2)C3)c1 [Example 122, 3-{[4-(2-Adamantan-1-yl-ethyl)-2-cyclohexyl-thiazole-5-carbonyl]-amino}-benzoic Acid] | 3020 | 1020 |
| Cc1ccc(NC(=O)c2nc(-c3ccccn3)[nH]c2CCC23CC4CC(CC(C4)C2)C3)cc1C(=O)O [Example 179, 5-{[5-(2-Adamantan-1-yl-ethyl)-2-pyridine-2-yl-1H-imidazole-4-carbonyl]-amino}-2methyl-benzoic Acid] | 46.8 | 40.7 |
| Cc1ccc(NC(=O)c2nc(-c3ccccc3C)n(C)c2CCC23CC4CC(CC(C4)C2)C3)cc1C(=O)O [Example 161, 5-{[5-(2-Adamantan-1-yl-ethyl)-1-methyl-2-o-tolyl-1H-imidazole-4-carbonyl]-amino}-2-methyl-benzoic Acid] | 81.3 | 38.9 |
| O=C(O)c1cccc(NC(=O)c2nc([C@@H]3CCCN3)[nH]c2CCC23CC4CC(CC(C4)C2)C3)c1 [Example 136, (S)-3-{[5-(2-Adamantan-1-yl-ethyl)-2-pyrrolidin-2-yl-1H-imidazole-4-carbonyl]-amino}-benzoic Acid] | 148 | 4170 |
| Cc1ccc(NC(=O)c2nc(C3CC4CCC3C4)[nH]c2CCC23CC4CC(CC(C4)C2)C3)cc1C(=O)O (racemic) [Example 209, (±)-endo-5-{[5-(2-Adamantan-1-yl-ethyl)-2-bicyclo[2.2.1]hept-2-yl-1H-imidazole-4-carbonyl]-amino}-2-methyl-benzoic Acid] | 1.1 | 2.09 |
| O=C(O)c1cccc(NC(=O)c2nc(C3CCCCC3)[nH]c2CCC2CCCCC2)c1 [Example 168, 3-{[2-Cyclohexyl-5-(2-cyclohexyl-ethyl)-1H-imidazole-4-carbonyl]-amino}-benzoic Acid] | 64.6 | 245 |
| CCC(CC)c1nc(C(=O)Nc2cccc(C(=O)O)c2)c(CCC23CC4CC(CC(C4)C2)C3)[nH]1 [Example 112, 3-{[5-(2-Adamantan-1-yl-ethyl)-2-(1-ethyl-propyl)-1H-imidazole-4-carbonyl]-amino}-benzoic Acid] | 9.33 | 45.7 |
| CC1=C(Cc2nc(C(=O)Nc3cccc(C(=O)O)c3)c(CCC34CC5CC(CC(C5)C3)C4)[nH]2)C(C)(C)CCC1 [Example 202, 3-{[5-(2-Adamantan-1-yl-ethyl)-2-(2,6,6-trimethyl-cyclohex-1-enylmethyl)-1H-imidazole-4-carbonyl]-amino)-benzoic Acid] | 28.8 | 112 |
| CC(C(=O)O)c1cccc(NC(=O)c2nc(C3CCCCC3)[nH]c2CCC23CC4CC(CC(C4)C2)C3)c1 (racemic) [Example 255, (±)-2-(3-{[5-(2-Adamantan-1-yl-ethyl)-2-cyclohexyl-1H-imidazole-4-carbonyl]-amino}-phenyl)-propionic Acid] | 178 | 1.41 |
| O=C(O)c1cccc(NC(=O)c2[nH]c(C3CCCC3)nc2CCC23CC4CC(CC(C4)C2)C3)c1 [Example 196, 3-{[5-(2-Adamantan-1-ethyl)-2-cyclopentyl-1H-imidazole-4-carbonyl]-amino}-benzoic Acid] | 7.08 | 38 |
| Cc1ccccc1-c1nc(C(=O)Nc2ccc(N)c(C(=O)O)c2)c(CCC23CC4CC(CC(C4)C2)C3)[nH]1 [Example 241, 5-{[5-(2-Adamantan-1-yl-ethyl)-2-o-tolyl-1H-imidazole-4-carbonyl]-amino}-2-amino-benzoic Acid Dihydrochloride] | 4680 | 60.3 |
| O=C(O)c1cccc(NC(=O)c2[nH]c(C3CCCCCC3)nc2CCC23CC4CC(CC(C4)C2)C3)c1 [Example 79, 3-{[5-(2-Adamantan-1-yl-ethyl)-2-cycloheptyl-1H-imidazole-4-carbonyl]-amino}-benzoic Acid] | 5.37 | 11.7 |
| COc1ccccc1-c1nc(C(=O)Nc2cccc(C(=O)O)c2)c(CCC23CC4CC(CC(C4)C2)C3)[nH]1 [Example 58, 3-{[5-(2-Adamantan-1-yl-ethyl)-2-(2-methoxy-phenyl)-1H-imidazole-4-carbonyl]-amino}-benzoic Acid] | 22.9 | 794 |
| Cc1ccccc1-c1nc(C(=O)Nc2cccc(C(=O)O)c2)c(CCC23CC4CC(CC(C4)C2)C3)n1C [Example 73, 3-{[5-(2-Adamantan-1-yl-ethyl)-1-methyl-2-o-tolyl-1H-imidazole-4-carbonyl]-amino}-benzoic Acid] | 6.61 | 417 |
| Cc1ccccc1-c1nc(C(=O)Nc2cccc(C(=O)O)c2)c(CCC2CCCCC2)[nH]1 [Example 89, 3-{[5-(2-Cyclohexyl-ethyl)-2-o-tolyl-1H-imidazole-4-carbonyl]-amino}-benzoic Acid] | 20 | 676 |
| CCc1ccccc1-c1nc(C(=O)Nc2ccc(C)c(C(=O)O)c2)c(CCC23CC4CC(CC(C4)C2)C3)[nH]1 [Example 159, 5-{[5-(2-Adamantan-1-yl-ethyl)-2-(2-ethyl-phenyl)-1H-imidazole-4-carbonyl]-amino}-2-methyl-benzoic Acid] | 316 | 12.3 |
| O=C(O)c1cccc(NC(=O)c2nc(CC3CCCCC3)[nH]c2CCC23CC4CC(CC(C4)C2)C3)c1 [Example 193, 3-{[5-(2-Adamantan-1-yl-ethyl)-2-cyclohexylmethyl-1H-imidazole-4-carbonyl]-amino}-benzoic Acid] | 20.4 | 57.5 |
